For assay [1], the target named is T1, full-length human P2X7 receptor (HEK-293-hP2X7-R cells) (Homo sapiens, UniProt Q99572).
T1 construct: For transfections, the full length human P2X7 receptor; expressed in transfected cells; host or cells: HEK-293, pcDNA-6 vector
T1 sequence (Q99572 1-595): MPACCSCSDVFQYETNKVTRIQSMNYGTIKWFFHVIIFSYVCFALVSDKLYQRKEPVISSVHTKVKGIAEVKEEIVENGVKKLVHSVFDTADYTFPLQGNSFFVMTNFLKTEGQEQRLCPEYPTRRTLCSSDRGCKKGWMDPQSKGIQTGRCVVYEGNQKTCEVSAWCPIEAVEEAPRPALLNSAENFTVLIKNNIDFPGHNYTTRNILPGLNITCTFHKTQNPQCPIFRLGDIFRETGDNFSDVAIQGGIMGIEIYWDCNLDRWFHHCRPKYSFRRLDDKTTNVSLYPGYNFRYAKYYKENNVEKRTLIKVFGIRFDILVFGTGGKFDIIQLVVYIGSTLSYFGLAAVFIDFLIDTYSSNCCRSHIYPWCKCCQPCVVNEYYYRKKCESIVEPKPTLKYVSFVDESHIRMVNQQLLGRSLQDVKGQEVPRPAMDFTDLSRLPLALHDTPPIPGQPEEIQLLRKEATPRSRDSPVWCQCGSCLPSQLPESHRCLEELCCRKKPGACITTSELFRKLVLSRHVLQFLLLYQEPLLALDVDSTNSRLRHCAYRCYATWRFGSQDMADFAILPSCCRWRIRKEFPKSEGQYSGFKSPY
As to the kind of experiment: Cytosolic calcium in HEK-293-hP2X7-R and wild-type HEK293 cells on filters. Format: cell-based.

Assay [2] concerns β-arrestin-2-GFP in CaSki cells. Briefly: Real-time confocal microscopy of β-arrestin-2-GFP, CaSki cells. Format: cell-based, human. The following applies: CaSki transfected with β-arrestin-2-GFP; 250 μM ATP. As for the experimental part:
(§1) CaSki cells transfected with the β-arrestin-2-GFP, or HEK-293 cells co-transfected with the full-length human P2X7-receptor and the β-arrestin-2-GFP were plated on 35-mm glass-bottom culture dishes (MatTek Corporation, Ashland, MA). Dishes contained a centered, 1 cm well formed from a glass coverslip sealed hole in the plastic. Two hours before experiments the medium was replaced with serum-free medium supplemented with 10 mM HEPES. The distribution of the β-arrestin-2-GFP was visualized before and after treatment with the agonist by real-time confocal microscopy. Imaging of the β-arrestin-2-GFP fluorescence in the same cells was performed on a Zeiss laser-scanning confocal microscope (LSM-510) using a heated (37° C.) microscope stage. Barak et al., “A beta-arrestin/green fluorescent protein biosensor for detecting G protein-coupled receptor activation” J Biol Chem 272:27497-27500 (1997).
(§2) Images were collected sequentially before and after treatment with agonist for 0-30 min at 37° C. using single line excitation (488 nm).

Assay [3] has as its system β-arrestin-2-GFP in HEK-293-hP2X7-R cells. Briefly: Real-time confocal microscopy of β-arrestin-2-GFP, HEK-293 cells. The format is cell-based, human. As for the experimental part: as §1, §2
In assay [4] the target is P2X7 receptor (HEK-293-hP2X7-R cells) (Homo sapiens, UniProt Q99572).
For assay [5], the system named is CaSki cells. As to the kind of experiment: DNA solubilization assay (apoptosis). The format is cell-based, human. The following applies: for effect on zinterol (1 μM)-induced inhibition of BzATP-induced apoptosis: cotreatment 24 h: 10 μM propranolol, 100 nM ICI 118,551, 30 μM H-89 dihydrochloride; for BzATP-induced DNA solubilization after pretreatment: 100 μM BzATP 9 h, 24 h 2 nM epinephrine ± 0.2 nm EGF, zVAD-FMK 30 min before, 50 /ZM; for effect on BzATP-induced apoptosis (DNA solubilization): pretreatment: EGF 0.2 nM, zinterol/terbutaline 1 μM 24 h, forskolin 10 μM 14 h with IBMX, isoproterenol 10 μM, phenylephrine 100 μM. On the procedure: Twenty-four hours before the end of the experiment, cells were labeled with [^3H]thymidine (specific activity, 93 Ci/mmol; 5 μCi/1×10^6 cells) for 16 h. The medium was removed, and cells were washed three times with fresh medium lacking [^3H]thymidine and were incubated in the same medium for an additional 6 h. At the end of incubation, the supernatant was stored, and cells were lysed in 0.5 ml lysis buffer (10 mM Tris-HCl, pH 7.5; plus 1 mM EDTA-0.2% Triton X-100) for 1 h at 4° C. The intact chromatin was separated from the fragmented DNA by 5 min centrifugation at 4° C. in Eppendorf microcentrifuge at 12,000×g. The supernatant (lysate) was stored, while the pellet was resuspended in 0.5 ml of 1% sodium dodecyl sulfate (SDS). The radioactivity contained in the supernatants, lysates; and pellets was counted in a scintillation counter, and DNA fragmentation was calculated as: [% Solubilized DNA]=([cpm supernatant+cpm lysates]/[cpm supernatant+cpm lysate+cpm pellet])×100.

For assay [6], the system named is hECEs, ECE16-1, HT3, CaSki, SiHa and Hela cells. To be noted: cited from earlier work.
In assay [7] the target is T1, full-length human P2X7 receptor (HEK-293-hP2X7-R cells). Briefly: Ethidium bromide influx in HEK-293-hP2X7-R and wild-type HEK293 cells on filters. The format is cell-based.
The subject of assay [8] is α-adrenoceptors (CaSki cells). Briefly: Binding studies, α-adrenoceptor radioligands. The arrangement: species or system human. To be noted: not shown. As for the experimental part:
Binding studies of the adrenoceptors and the EGF receptor used a similar method. Two hundred fifty microliters of binding medium (serum-free DMEM, 0.1% BSA, 10 mM HEPES) containing […] of the radioligand were added to the apical container of the filter, and 500/μl of the same solution to the basolateral container; parallel tubes contained an additional 200-fold excess radioinert ligand. The cells were then incubated at 4° C. for 3 h; at the completion of incubations cells were washed three times with ice-cold HBSS containing 0.1% BSA. Cells were solubilized in 0.2 N NaOH, and the bound ligand was separated on glass fiber filters (Whatman, GF/C, Tonawanda, N.Y.) by vacuum filtration. The associated radioligand was counted either in a β-scintillation counter (for [^3H] associated ligands) or in a γ-counter (for 125I] associated ligands). […] (all at 1 μCi/ml; specific activity, about 90 Ci/mmo]; Amersham), and [^125I]EGF (5 μCi/ml; specific activity, about 100 Ci/mmol; Biomedical Technology, Stoughton, Mass.). […] Human recombinant EGF was from R&D Systems (Minneapolis, Minn.). Specific receptor binding was expressed per milligram DNA, and data were analyzed by Scatchard plot.

The target of assay [9] is T2, β2-adrenoceptor (CaSki cells) (Homo sapiens, UniProt P07550).
T2 construct: endogenous in cells; host or cells: CaSki cells on filters (intact cells, 4 °C)
T2 sequence (P07550 whole entry): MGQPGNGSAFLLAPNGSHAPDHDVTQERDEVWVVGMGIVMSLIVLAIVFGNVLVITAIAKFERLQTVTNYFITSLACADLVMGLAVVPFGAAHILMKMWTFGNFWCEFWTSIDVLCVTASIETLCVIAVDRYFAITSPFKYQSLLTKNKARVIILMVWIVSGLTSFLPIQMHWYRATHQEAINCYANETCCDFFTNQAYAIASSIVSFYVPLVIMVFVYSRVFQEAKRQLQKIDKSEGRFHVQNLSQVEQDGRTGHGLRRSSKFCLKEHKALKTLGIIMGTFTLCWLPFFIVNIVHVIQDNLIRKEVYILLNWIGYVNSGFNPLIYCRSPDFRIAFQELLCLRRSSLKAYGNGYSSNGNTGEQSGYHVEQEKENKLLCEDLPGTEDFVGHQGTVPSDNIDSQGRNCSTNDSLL
As to the kind of experiment: Binding studies, β-adrenoceptor radioligand.

The test system of assay [10] is CaSki cells. Briefly: Number of CaSki cells in culture. Format: cell-based, human. To be noted: serum-free; 0.2 nM EGF, 2 nM epinephrine, or both, 24 h. As for the experimental part: Near-confluent cultures of CaSki cells on filters were shifted for 14 hours to serum-free medium supplemented with 1% BSA and were treated in the same medium with 0.2 nM EGF, 2 nM epinephrine, or both for an additional 24 h. At the completion of treatments, cells were harvested off the filters and counted.

Where [11] appears, read: HEK-293-hP2X7-R with β-arrestin-2-GFP, 10 μM angiotensin, 10 μM UTP.

The values below come from patent US7767789B2, “Truncated proteins as cancer markers” (University Hopitals of Cleveland, priority 2005, dated 2010).

Residues, ends and D or L forms follow the SMILES beside them. *: point of attachment. Cbz = O=C(OCc1ccccc1)*; CH2F = FC*

Turning to `Nc1ncnc2c1ncn2[C@@H]1O[C@H](COP(=O)(O)OP(=O)(O)OP(=O)(O)O)[C@@H](O)[C@H]1O` [ATP, adenosine triphosphate], in assay [1], the Cai transients entry is recorded as “did not induce Cai transients” and the “sustained cytosolic calcium increase” value is “induced sustained Ci increase”. Besides, the “time to re-distribution of GFP fluorescence towards cell periphery” value in assay [2] is not above 3 min. Further, the “time to redistribution of the GFP fluorescence towards cell periphery” value in assay [3] (HEK-293-hP2X7-R co-transfected with β-arrestin-2-GFP, 250 μM ATP) is not above 5 min. For the same compound, in assay [3] (HEK-293-hP2X7-R with β-arrestin-2-GFP, 250 μM ATP), the “duration of redistribution effect” value is “at least 10 minutes”. Besides, the “effect on the GFP fluorescence” value in [3] (HEK-293 cells transfected with only β-arrestin-2-GFP, 250 μM ATP) is given as “no significant effect”. Also, the “65 KDa and 18 KDa forms in the cytosol” value in assay [4] (HEK-293-hP2X7-R cells) is on record as “biphasic change”. The “18 KDa form in the membrane-enriched fraction” value in assay [4] (HEK-293-hP2X7-R, began 10 min after treatment) is given as “gradual increase”.

As for `Cl.Cl.O=S(=O)(NCCNC/C=C/c1ccc(Br)cc1)c1cccc2cnccc12` [H-89 dihydrochloride], the “effect on zinterol (1 μM)-induced inhibition of BzATP-induced apoptosis” value in the assay on CaSki cells [5] is “blocked”.

Turning to `Cc1ccc(OCC(O)C(C)NC(C)C)c2c1CCC2` (stereo not shown) [ICI 118,551], the “effect on zinterol (1 μM)-induced inhibition of BzATP-induced apoptosis” value in the assay on CaSki cells [5] is given as “blocked”.

In the case of `C[C@]12CC[C@@H]3c4ccc(O)cc4C[C@@H](CCCCCCCCC[S+]([O-])CCCC(F)(F)C(F)(F)F)[C@H]3[C@@H]1CC[C@@H]2O` (stereo partly shown) [ICI-182780], the “inhibition of the estrogen antiapoptotic action” value in assay [6] is “lack of inhibition”.

Consider `CN([C@@H](Cc1ccc(OS(=O)(=O)c2cccc3cnccc23)cc1)C(=O)N1CCN(c2ccccc2)CC1)S(=O)(=O)c1cccc2cnccc12` [KN-62, 1-[N,O-bis(5-isoquinolinesulfonyl)-N-methyl-L-tyrosyl]-4-phenylpiperazine], for which the “effect on ATP/BzATP-induced sustained calcium increase” value in assay [1] is on record as “inhibited”. The “effect on ATP/BzATP-induced influx of ethidium bromide” value in assay [7] was “inhibited”.

`O=c1ccn([C@@H]2O[C@H](COP(=O)(O)OP(=O)(O)OP(=O)(O)O)[C@@H](O)[C@H]2O)c(=O)[nH]1` [UTP]: the “effect on cytosolic calcium levels” value in assay [1] (not shown) is recorded as “nor did the nucleotide UTP have any appreciable effect”. Also, in assay [3] (setting [11]), the “effect on the GFP fluorescence” value is listed as “Neither angiotensin, nor UTP, had a significant effect”.

With `COc1cc2nc(N3CCN(C(=O)c4ccco4)CC3)nc(N)c2cc1OC` [[^3H]prazosin], the specific binding entry in [8] is reported as “no specific binding”.

Regarding `CC(C)(C)NCC(O)COc1cccc2[nH]c(C#N)c([125I])c12` (stereo not shown) [[^125I]cyanopindolol], in assay [9], the binding activity entry is “about 15 fmol/mg DNA” and the “binding activity as receptors per cell” value is reported as ~10,000 receptors/cell.

For the compound `CNC[C@H](O)c1ccc(O)c(O)c1` [epinephrine], the “number of cells in culture” value in the assay with CaSki cells [10] is reported as “increased the number of cells in culture”. Further, the “BzATP-induced DNA solubilization after pretreatment” value in the assay with CaSki cells [5] is on record as 4.6%.

As for `CC(C)NCC(O)c1ccc(O)c(O)c1` (stereo not shown) [isoproterenol], the “effect on BzATP-induced apoptosis (DNA solubilization)” value (shortened to “effect on BzATP-induced apoptosis”) with CaSki cells [5] was “no effect”.

As to `Nc1ncnc2c1ncn2[C@@H](C=O)O[C@@H](C=O)COP(=O)(O)OP(=O)(O)OP(=O)(O)O` [oATP, oxidized ATP], the “effect on ATP/BzATP-induced sustained calcium increase” value in [1] is “inhibited”. Further, the “effect on ATP/BzATP-induced influx of ethidium bromide” value in [7] is “inhibited”.

Turning to `CNC[C@H](O)c1cccc(O)c1` [phenylephrine], the “effect on BzATP-induced apoptosis” value in the assay with CaSki cells [5] is listed as “no effect”.

`CC(=O)[C@H]1CC[C@H]2[C@@H]3CCC4=CC(=O)CC[C@]4(C)[C@H]3CC[C@]12C` [progesterone]: the “inhibition of the estrogen antiapoptotic action” value in [6] is “lack of inhibition”.

As for `CC(C)NCC(O)COc1cccc2ccccc12` (stereo not shown) [propranolol], the “effect on zinterol (1 μM)-induced inhibition of BzATP-induced apoptosis” value with CaSki cells [5] is on record as “blocked”.

For `CC/C(=C(\c1ccccc1)c1ccc(OCCN(C)C)cc1)c1ccccc1` [tamoxifen], in assay [6], the “inhibition of the estrogen antiapoptotic action” value is “lack of inhibition”.

For the compound `CC(C)(C)NCC(O)c1cc(O)cc(O)c1` (stereo not shown) [terbutaline], the “effect on BzATP-induced apoptosis” value with CaSki cells [5] is “inhibited”.

On to `COC(=O)C[C@H](NC(=O)[C@H](C)NC(=O)[C@@H](NC(=O)OCc1ccccc1)C(C)C)C(=O)CF` [zVAD-FMK, Benzyloxy-vallne-alardne-aspartate-O-methylfluoromethylketone] (Cbz-Val-Ala-Asp(OMe)-CH2F), for which, in the assay on CaSki cells [5], the “BzATP-induced DNA solubilization after pretreatment” value is listed as “about 1.4%”.

Consider `CC(C)(Cc1ccccc1)NCC(O)c1ccc(O)c(NS(C)(=O)=O)c1` (stereo not shown) [zinterol], for which, in the assay on CaSki cells [5] (pretreatment 24 h: 1 μM zinterol or 0.2 nM EGF), the “effect on TNFα-induced increase in DNA solubilization” value is given as “no effect”. For the same compound, the “effect on BzATP-induced apoptosis” value in the assay with CaSki cells [5] was “inhibited”.

Turning to TNFα, the DNA solubilization result in the assay on CaSki cells [5] (100 μM BzATP for 9 h or 10 μM TNFα for 14 h) is “significantly increased DNA solubilization”.

For [^3H]tamsulosin, the specific binding entry in assay [8] is given as “no specific binding”.

Turning to angiotensin, in assay [3] (setting [11]), the “effect on the GFP fluorescence” value is on record as “Neither angiotensin, nor UTP, had a significant effect”.
